The subject of the assay is CEM cells HIV-1 protection, formazan growth assay. The assay can be described thus: NCI AIDS Antiviral Assay. As to conditions: for pIC50: measured here: growth of uninfected CEM cells. An outline of the steps: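 Protection of CEM cells against HIV-1 was scored from cell growth (soluble formazan) across five concentrations, with parallel uninfected cells. Lack of protection may reflect toxicity.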

pEC50, pIC50: −log10 of the molar value. The source made the active and inactive calls.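 Rule for the calls: active = compounds giving half or more protection of infected cells from virus-caused growth loss, again on retest; inactive = the rest.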

For the compound `COC(=O)C[C@](O)(CCC(C)(C)O)C(=O)O[C@@H]1C(OC)=C[C@]23CCCN2CCc2cc4c(cc2[C@H]13)OCO4`, the result was inactive.

Consider `OCC1OCOC2COCOC12` (configuration not stated), for which the pEC50 (in general, −log10 of the EC50, conventionally taken in molar units) is < 3.70 and the pIC50 (usually −log10 of the IC50, conventionally taken in molar units) is < 3.70.

For the compound `C[n+]1[se]c2ccccc2c1Cl`, the pEC50 was < 3.73 and the pIC50 is 5.14.

For the compound `COC(=O)c1cc(=O)nc(N/N=C/c2ccccc2O)s1`, the pEC50 is < 4.07 and the pIC50 was 4.24.

With `Cc1cc(C)c2cnnn2n1`, the pEC50 is < 2.77 and the pIC50 was < 2.77.

As to `C1=CC2SSSC2C1` (configuration not stated), the pEC50 was < 3.60 and the pIC50 is < 3.60.

In the case of `Cn1c2ccccc2c(=O)c2c(O)cc3c(c21)C=CC1(CCCCC1)O3`, the pEC50 is < 3.70 and the pIC50 was < 3.70.

As for `COC(=O)CCC(NC(=O)C(C)NC(=O)COC1C(O)C(OC(=O)CCNc2c3ccccc3nc3cccc([N+](=O)[O-])c23)OC(OCc2ccccc2)C1NC(C)=O)C(N)=O` (configuration not stated), the result was inactive.

Consider `O=C(Oc1ccccc1C(=O)O)c1ccccc1O`, for which the pEC50 is < 3.70 and the pIC50 was < 3.70.

For the compound `CC(=O)Nc1ccc(C(=O)NN2C(=O)C(Cl)C2c2cc(Br)ccc2O)cc1` (configuration not stated), the pEC50 is < 3.70 and the pIC50 was 5.38.

With `Nc1ccc(C(=O)N/C(=C\c2ccc3c(c2)OCO3)c2nc3ccccc3s2)cc1`, the outcome was inactive.

As for `CC(C)(CO)CNc1cc(Cl)nc(N)n1`, the pEC50 is < 3.70 and the pIC50 was < 3.70.

Turning to `CN(C)C(=S)/N=c1\sn(C)/c(=N\C(=S)N(C)C)n1C`, the result was inactive.

Take `COc1cc([C@@H]2c3cc4c(cc3[C@H](O)[C@H]3COC(=O)[C@H]23)OCO4)cc(OC)c1OC`: the pEC50 was < 5.64 and the pIC50 was 8.32.

Regarding `O=C1C2CCCCC2C(=O)N1n1c(Cc2ccc(Cl)cc2)n[nH]c1=O` (configuration not stated), the pEC50 is < 3.70 and the pIC50 is < 3.70.

On to `COC12CCCC1S(=O)(=O)C2` (configuration not stated), for which the outcome was inactive.

For `Oc1ccc(-c2nc(-c3cccnc3)c(-c3ccc(Cl)cc3)[nH]2)cc1O`, the pEC50 is < 3.70 and the pIC50 is 4.86.

On to `CC1C2CC(CC2N)C1(C)C` (configuration not stated), for which the pEC50 was < 3.79 and the pIC50 is < 3.79.

For `COC(=O)[C@H](Cc1ccccc1)NC(=O)/C(=C/C(C)C)NC(=O)[C@H](CCSC)NC=O`, the pEC50 was < 3.26 and the pIC50 was < 4.00.

For `S=C(Nc1cccc(Cl)c1)Nc1ccccn1`, the pEC50 was < 3.70 and the pIC50 is < 3.70.

For `NC(=S)N/N=C/c1ccc(O)cn1`, the pEC50 is < 3.18 and the pIC50 was 5.95.

In the case of `N=C(N)SCCC(=O)CCSC(=N)N`, the pEC50 was < 4.07 and the pIC50 was 4.20.

Take `CC(O)C1(CNc2cc(Cl)nc(N)n2)CC(CCc2ccccc2)C1` (configuration not stated): the pEC50 is < 4.70 and the pIC50 is 5.11.

`CCCC[PH+](CCCC)CCCC.[C-]#[O+].[C-]#[O+].[C-]#[O+].[C-]#[O+].[Fe]`: the pEC50 was < 3.70 and the pIC50 is < 3.70.

Consider `O=C1/C(=C/c2ccc3c(c2)OCO3)Sc2scc(-c3ccc(O)c(O)c3)[n+]21`, for which the pEC50 is < 3.70 and the pIC50 was 5.96.

In the case of `C=C1[C@H]2CCC3(CC[C@H]4C5(CCC[C@@]4(C)C(=O)N(CCO)C5)[C@@H]3C2)[C@@H]1O`, the outcome was inactive.

On to `COc1ccc(-n2c(=O)[nH]n(C(C)=O)c2=O)cc1`, for which the pEC50 is < 3.70 and the pIC50 was < 3.70.

For the compound `CCCCCCCCCCCCCCCC=C(c1cc(Cl)c(O)c(C(=O)O)c1)c1cc(Cl)c(O)c(C(=O)O)c1`, the pEC50 is 4.68 and the pIC50 was 4.46.

Take `CCOC(=O)C1=C(C)Nc2ccccc2S1`: the result was inactive.

`O=C(Cc1ccccc1)c1ccc(O)cc1O`: the pEC50 is < 3.70 and the pIC50 is 4.07.

Turning to `CC(=O)ON(C)C1CC(=O)OC1CO[Si](C)(C)C(C)(C)C` (configuration not stated), the pEC50 is < 3.70 and the pIC50 was 4.03.

For the compound `CN(C(=O)C12C3C4C1C1C2C3C41C#N)C(C)(C)C` (configuration not stated), the pEC50 is < 4.38 and the pIC50 was < 4.38.

For the compound `O=[N+]([O-])/C(C(Cl)=C(Cl)Cl)=C(/Sc1ccccc1)N1CCCCC1`, the pEC50 is < 3.71 and the pIC50 was 4.89.

Regarding `O=C1C2C3C4C1C1C2[C@H](OCc2ccccc2)C3C1[C@H]4OCc1ccccc1` (some centres not stated), the pEC50 was < 3.70 and the pIC50 was 4.37.

For the compound `S=c1sc2c(s1)SCc1cccc(n1)CSc1sc(=S)sc1SCc1cccc(n1)CS2`, the pEC50 was < 3.70 and the pIC50 is < 3.70.

In turn, `O=C(CCCC[n+]1ccccc1)Sc1ccccc1C(=O)Nc1ccc(S(=O)(=O)Nc2cnc3ccccc3n2)cc1` showed a pEC50 of 4.91 and a pIC50 of 4.72.

Take `O=C(Nc1ccc(S(=O)(=O)c2ccc(NC(=O)c3ccc(N=Nc4cc(S(=O)(=O)O)c5cccnc5c4O)cc3S(=O)(=O)O)cc2)cc1)c1ccc(N=Nc2cc(S(=O)(=O)O)c3cccnc3c2O)cc1S(=O)(=O)O`: the pEC50 is 5.42 and the pIC50 was 4.03.

As for `COP(=O)(OC)C(N)Cc1c[nH]c2ccccc12` (configuration not stated), the pEC50 was < 3.70 and the pIC50 was < 3.70.

With `COC1(c2ccc(C)cc2C)OC(=O)c2c(C)cccc21` (configuration not stated), the result was inactive.

Regarding `CCC[CH2][Sn]([CH2]CCC)([O]C(=O)c1cc(F)ccc1F)[O][Sn]([CH2]CCC)([CH2]CCC)[O]C(=O)c1cc(F)ccc1F`, the pEC50 is < 5.04 and the pIC50 is 5.76.

On to `CN(C(=O)c1ccc(Cl)s1)C(=S)N(C)C(=O)c1ccc(Cl)s1`, for which the pEC50 was < 3.92 and the pIC50 was 3.94.

As for `CC(=O)/C(=C\C1=CCCO1)C(=O)Nc1ccccc1C`, the pEC50 was < 4.58 and the pIC50 is < 4.58.

For the compound `CCN(CC)CCCC(C)Nc1c(Sc2cnc3cc(Cl)ccc3c2NC(C)CCCN(CC)CC)cnc2cc(Cl)ccc12` (configuration not stated), the pEC50 is < 3.51 and the pIC50 is 5.77.

As to `CN(C)CCSC(=Nc1ccccc1)N1CCCCC1`, the pEC50 is < 3.91 and the pIC50 is 4.68.

Take `COc1cc2c3c(c1)[nH]c(=S)n3C(=O)CCS2`: the pEC50 is < 3.70 and the pIC50 was < 4.00.

`O=C(/C=C/c1cccc2ccccc12)c1ccccc1[N+](=O)[O-]`: the pEC50 was < 3.70 and the pIC50 is 5.49.

For `CCCCS(=O)(=O)CCC(N)C(=O)O` (configuration not stated), the pEC50 was < 4.00 and the negative logarithm of the IC50 (pIC50) was < 4.00.

On to `O=C(O)C1C2CC3CC2CC31` (configuration not stated), for which the outcome was inactive.

In the case of `CCOP(=O)(OCC)/C(C#N)=C/c1ccc(C)o1`, the pEC50 was < 3.03 and the pIC50 is 3.89.

`FC1=C2CCCCCC2SC1(F)F` (configuration not stated): the pEC50 was < 3.70 and the pIC50 was 4.49.

As to `Clc1ccc(CCn2cncn2)c(Cl)c1`, the pEC50 is < 3.05 and the pIC50 was 3.36.

For `CC(=O)Oc1ccc(/C=C/C(=O)O[C@@H](C(=O)O)[C@@H](OC(=O)/C=C/c2ccc(OC(C)=O)c(OC(C)=O)c2)C(=O)O)cc1OC(C)=O`, the pEC50 was < 4.52 and the pIC50 is < 4.52.

Turning to `COc1ccc(C(=O)/C=C/c2ccc(OCC#N)cc2)cc1`, the pEC50 was < 3.70 and the pIC50 was 4.80.

These data come from PubChem BioAssay AID179 (DTP/NCI, 2004).
